{"source": "patent US5631226A", "about": "“Treatment to reduce edema” (The Regents of the University of California, priority 1995, dated 1997)", "key": {"ACTH secretion": {"test_system": "ACTH secretion", "details": "prior art report; cited from earlier work"}, "blood pressure": {"test_system": "blood pressure", "details": "prior art report; cited from earlier work"}, "[1]": {"test_system": "vascular leakage produced by PAF-acether", "test": "Vascular leakage produced by PAF-acether injected subcutaneously into the abdomen", "assay_type": "in vivo, rat", "details": "CRF 30 μg/kg s.c. 30 minutes before PAF-acether", "protocol": "CRF: 30 μg/kg s.c. injected 30 minutes before subcutaneous injection o\nPAFacether (1 μg/0.1 ml/rat) into the abdomen; muscle removed 0.5 hour"}, "Pseudomonas": {"test_system": "Pseudomonas", "test": "Neutropenic rat model of sepsis (Pseudomonas infection), survival", "assay_type": "in vivo", "details": "CRF 100 μg/kg i.v. twice a day for four days after onset of fever; day 11; 9/15; controls 100% mortality at 8 days", "description": "The neutropenic rat model of sepsis, designed to mimic the systemic inflammatory response syndrome in humans, is described by Collins et al. from The Journal of Infectious Diseases, 159:6 (June 1989) and The Journal of Clinical Investigation, 88:885 (September 1991). […] The animals die from overwhelming infection within 7 to 9 days of infection and examination of the tissues with histological and pathological techniques reveal the characteristic organic manifestations of the systemic inflammatory response syndrome, namely, organ edema and tissue necrosis.\nIn a typical experiment, 10 rats serving as controls received saline and 15 rats received CRF at a dose of 100 μg/kg intravenously, given twice a day for four days after the onset of fever. At the end of 8 days, all of the animals in the control group were dead (100% mortality). By contrast, 60% (9/15) of the CRF group were still alive at day 11 when the experiment was concluded. The difference between the saline and CRF treated groups were statistically significant (P<0.002)."}, "[2]": {"test_system": "edema-producing properties of inflammatory mediators in rat pawskin", "details": "mediators injected into the rat pawskin; previously shown; cited from earlier work"}, "[3]": {"test_system": "vascular permeability produced by cold injury in brain", "test": "Cold (freeze) injury to brain, vascular leakage by Monastral blue staining", "assay_type": "in vivo, rat", "description": "An in vivo model of injury to study brain edema has been developed as a reproducible edema model, which has the features of immediate cortical damage followed by the subsequent development of brain edema. This model is described by Chan et al., Brain Research, 277, pp. 329-337 (1983). The model uses rats which are anesthetized. A 2.5 cm incision is made over the sagittal suture and the bone of the right hemisphere exposed. A 60 mm^2 plate attached to a brass cup filled with dry ice-acetone mixture, with a temperature of -50° C., is applied to the rat skull for one minute. The animals are sacrificed at various intervals after the onset of cold-injury. A dye is administered intravenously before the freezing. Cortical slices are then obtained of the brain.\nSixteen male rats were randomly divided into eight pairs and one rat in each pair received either saline or CRF (subcutaneously twice at 30 μg/kg, 30 min and 10 min before cold injury). The animals were anesthetized with sodium pentobarbital, 60 mg/kg intraperitoneally, and injected with Monastral blue, 60 mg/kg intravenously. A cold probe was applied onto the skull for four minutes and the brains taken out one hour after cold injury. The staining of brain tissues with Monastral blue, a colloidal pigment that gets trapped between the albuminal surface of the endothelial cell and the basement membrane, was proportional to the degree of vascular leakage. The results from the first pair are shown as FIG. 1.\nThe size of the lesion, measured as area in mm^2, and the degree of staining intensity, were quantified using an image-analysis software program called JAVA (Jandel Corporation, San Rafael, Calif.). The stain intensity, given in arbitrary units, was internally calibrated using Monastral blue solutions (1-30 mg/ml) placed on white filter paper. Values are mean ±S.E.M."}, "[4]": {"test_system": "brain edema after freeze injury to cerebral cortex", "test": "Freeze injury of cerebral cortex, water and sodium content as index of brain edema", "assay_type": "in vivo, rat", "details": "CRF 30 μg/kg s.c. 2x, tissues 3 hr after injury, ±S.E.M., N=5", "protocol": "In a second set of experiments, the brain surface, namely the cerebral cortex, was injured by freezing and the water and sodium content were measured in the cerebral cortex and in the basal ganglia, a part of the brain away from the freeze zone. The water and sodium content of the brain tissue served as an index of brain edema. After freeze injury, the water and sodium content of the cerebral cortex were evaluated relative to non-frozen tissues. CRF administered in two separate doses of 30 μg/kg subcutaneously, one dose 15 minutes before the injury and the second dose 90 minutes after the first dose, inhibited the two indices of brain edema.\nMale SpragueDawley rats, 300-325 g, anesthetized with\nketamineacepromazine, were injected saline or CRF (30 μg/kg s.c. 2x)\nand injury to cerebral cortex was produced by applying a cold probe to th\nskull for 1 min. Brain tissues were obtained 3 hr later and analyzed for\nwater and sodium content."}, "[5]": {"test_system": "vascular leakage after musculature injury (celiotomy)", "test": "Vascular leakage after celiotomy (4 cm midline incision through abdominal muscle wall)", "assay_type": "in vivo, rat", "details": "for Lesions Size: tissues 0.5 hour after surgery", "protocol": "Experiments were conducted on male Sprague-Dawley rats 243±15 gm (S. D., Simonsen Labs., Gilroy, Calif.) anesthetized with sodium pentobarbital, 60 mg/kg i.p. Monastral blue, 60 mg/kg i.v., was injected 0.2 ml/100 g, 3 minutes before a 4 cm midline incision through the abdominal muscle wall (celiotomy). Saline or CRF was administered to randomized pairs with N=8 rats per group. The size of the lesion, measured as area in mm^2, and its light intensity, were quantified using the JAVA image-analysis software program. The light intensity, given in arbitrary units, was internally calibrated using Monastral blue solutions (1-30 mg/ml) placed on white filter paper. Values are mean±S.E.M. FIG. 2 illustrates the respective amount of vascular permeability for one pair of rats (control and treated). Tables III and IV set out data from these experiments.\nCRF: inhected at various doses subcutaneously 30 minutes before a 4 cm\nmiddle incision, tissues taken 0.5 hour after surgery.\nCRF: 30 μg/kg s.c. injected 2 hour before a 4 cm midline incision,\ntissues taken 0.5 hour after surgery"}, "[6]": {"details": "CRF 15 μg/kg s.c. 30 minutes before incision"}, "[7]": {"details": "CRF 30 μg/kg s.c. 30 minutes before incision"}, "[8]": {"details": "CRF 60 μg/kg s.c. 30 minutes before incision"}}, "note": "No end group written: not given here.", "data": [{"compound": "CC[C@H](C)[C@H](NC(=O)[C@@H](NC(=O)[C@H](CC(=O)O)NC(=O)[C@H](CC(C)C)NC(=O)[C@H](CC(C)C)NC(=O)[C@H](CC(C)C)NC(=O)[C@H](CCCNC(=N)N)NC(=O)[C@H](CC(N)=O)NC(=O)[C@H](CC(N)=O)NC(=O)[C@H](C)NC(=O)[C@H](C)NC(=O)[C@H](CCC(N)=O)NC(=O)[C@H](CCC(N)=O)NC(=O)[C@H](CCCCN)NC(=O)[C@H](CCC(=O)O)NC(=O)[C@H](CCCCN)NC(=O)[C@H](CCC(=O)O)NC(=O)[C@H](CCC(N)=O)NC(=O)[C@H](CCCCN)NC(=O)[C@H](CCC(=O)O)NC(=O)[C@@H](NC(=O)[C@H](CCC(=O)O)NC(=O)[C@@H](NC(=O)[C@H](CCSC)NC(=O)[C@H](CCCCN)NC(=O)[C@H](CCCNC(=N)N)NC(=O)[C@H](CC(C)C)NC(=O)[C@H](CC(C)C)NC(=O)[C@H](CCC(=O)O)NC(=O)[C@H](CC(C)C)NC(=O)[C@H](CO)NC(=O)[C@H](CC(C)C)NC(=O)[C@H](CC(=O)O)NC(=O)[C@@H](NC(=O)[C@H](CO)NC(=O)[C@@H](NC(=O)[C@@H]1CCCN1C(=O)[C@@H]1CCCN1C(=O)CNC(=O)[C@@H]1CCC(=O)N1)[C@@H](C)CC)[C@@H](C)CC)[C@@H](C)CC)[C@@H](C)CC)[C@@H](C)O)C(N)=O", "note": "[Sauvagine]", "values": [{"measurement": "effect on ACTH secretion", "setting": "ACTH secretion", "value": "stimulating the secretion of ACTH and β-endorphin"}, {"measurement": "effect on blood pressure", "setting": "blood pressure", "value": "lowering blood pressure"}]}, {"compound": "CRF: 41 amino acid neuropeptide present in brain and peripheral nerve endings; stimulates ACTH release from pituitary cells (SEEPPISLDLTFHLLREVLEMARAEQLAQQAHSNRKLMEII; not fully specified; ends and bridges not checked; UniProt P06850 154-194, looked up)", "values": [{"measurement": "muscle lesion size relative to saline-treated control group", "setting": "[1]", "value": 44, "unit": "%"}, {"measurement": "animals still alive (survival)", "setting": "Pseudomonas", "value": 60, "unit": "%"}, {"measurement": "effect on edema-producing properties of inflammatory mediators", "setting": "[2]", "value": "antagonize the edema-producing properties"}, {"measurement": "lesion size of CRF-treated group relative to saline-treated group", "setting": "[3]; CRF 30 μg/kg s.c. twice before cold injury", "value": 44, "unit": "%"}, {"measurement": "Intensity (Monastral blue stain intensity)", "setting": "[3]; CRF 30 μg/kg s.c. twice, 30 min and 10 min before cold injury, brains taken 1 hour after injury, mean ± S.E.M.", "value": "2.0 ± 0.05", "unit": "arbitrary units"}, {"measurement": "blinded observer correctly assigns brains to saline or CRF group (more vs less damaged)", "setting": "[3]; eight pairs of rats", "value": "8 out of 8"}, {"measurement": "SODIUM mEq/kg dry", "setting": "[4]; basal ganglia (non-injured)", "value": "215 ± 9", "unit": "mEq/kg dry"}, {"measurement": "WATER CONTENT %", "setting": "[4]; basal ganglia (non-injured)", "value": "76 ± 1", "unit": "%"}, {"measurement": "SODIUM mEq/kg dry", "setting": "[4]; cerebral cortex (injured)", "value": "271 ± 8", "unit": "mEq/kg dry"}, {"measurement": "WATER CONTENT %", "setting": "[4]; cerebral cortex (injured)", "value": "77 ± 4", "unit": "%"}, {"measurement": "lesion size relative to saline-treated group", "setting": "[5]; [6]", "value": 63, "unit": "%"}, {"measurement": "Lesions Size", "setting": "[5]; [6]", "value": "1031 ± 44"}, {"measurement": "lesion size relative to saline-treated group", "setting": "[5]; [7]", "value": 42, "unit": "%"}, {"measurement": "Lesions Size", "setting": "[5]; [7]", "value": "676 ± 47"}, {"measurement": "lesion size relative to saline-treated group", "setting": "[5]; CRF 30 μg/kg s.c. 2 hour before incision", "value": 59, "unit": "%"}, {"measurement": "lesion size relative to saline-treated group", "setting": "[5]; [8]", "value": 29, "unit": "%"}, {"measurement": "Lesions Size", "setting": "[5]; [8]", "value": "468 ± 19"}]}]}
